Assay: xn = mol fraction of the nth substance listed

CCOC(C)=O + CCO + CCCC[n+]1ccn(C)c1.O=S(=O)([N-]S(=O)(=O)C(F)(F)F)C(F)(F)F
298.15 K, 101 kPa
Conditions | viscosity [mPa·s]
x2 = 0.0086, x1 = 0.9023 | 0.967
x2 = 0.0173, x1 = 0.804 | 1.818
x2 = 0.0216, x1 = 0.8938 | 0.982
x2 = 0.026, x1 = 0.7051 | 3.29
x2 = 0.0299, x1 = 0.9014 | 0.806
x2 = 0.035, x1 = 0.6029 | 5.36
x2 = 0.0405, x1 = 0.8009 | 1.644
x2 = 0.0422, x1 = 0.521 | 7.65
x2 = 0.045, x1 = 0.8887 | 0.803
x2 = 0.0534, x1 = 0.3936 | 12.87
x2 = 0.0549, x1 = 0.8911 | 0.714
x2 = 0.0571, x1 = 0.9051 | 0.658
x2 = 0.0615, x1 = 0.7971 | 1.44
x2 = 0.0622, x1 = 0.2942 | 17.63
x2 = 0.0632, x1 = 0.6895 | 2.89
x2 = 0.0688, x1 = 0.2189 | 22.5
x2 = 0.0754, x1 = 0.1444 | 28.1
x2 = 0.0777, x1 = 0.6181 | 4.09
x2 = 0.0778, x1 = 0.1168 | 30.1
x2 = 0.08, x1 = 0.8998 | 0.526
x2 = 0.0815, x1 = 0.0753 | 34.1
x2 = 0.0882, x1 = 0.7818 | 1.308
x2 = 0.0925, x1 = 0.6947 | 2.35
x2 = 0.0953, x1 = 0.8644 | 0.656
x2 = 0.0984, x1 = 0.5164 | 6.16
x2 = 0.0997, x1 = 0.8023 | 1.05
x2 = 0.1177, x1 = 0.6116 | 3.32
x2 = 0.1191, x1 = 0.802 | 0.89
x2 = 0.1234, x1 = 0.3937 | 9.59
x2 = 0.125, x1 = 0.6908 | 1.976
x2 = 0.1404, x1 = 0.3101 | 13.03
x2 = 0.1414, x1 = 0.7989 | 0.789
x2 = 0.1455, x1 = 0.5201 | 4.81
x2 = 0.1477, x1 = 0.707 | 1.521
x2 = 0.1591, x1 = 0.8229 | 0.523
x2 = 0.1604, x1 = 0.6032 | 2.8
x2 = 0.1639, x1 = 0.1949 | 18.29
x2 = 0.1658, x1 = 0.7923 | 0.681
x2 = 0.1735, x1 = 0.1475 | 21.3
x2 = 0.183, x1 = 0.6956 | 1.289
x2 = 0.1841, x1 = 0.0957 | 24.4
x2 = 0.1843, x1 = 0.392 | 7.6
x2 = 0.1948, x1 = 0.043 | 28.1
x2 = 0.1978, x1 = 0.5106 | 3.97
x2 = 0.1995, x1 = 0.6042 | 2.19
x2 = 0.2059, x1 = 0.7708 | 0.557
x2 = 0.213, x1 = 0.2974 | 10.46
x2 = 0.2132, x1 = 0.6967 | 1.026
x2 = 0.2314, x1 = 0.6152 | 1.684
x2 = 0.2434, x1 = 0.1969 | 14.03
x2 = 0.2448, x1 = 0.6933 | 0.829
x2 = 0.2449, x1 = 0.394 | 5.82
x2 = 0.247, x1 = 0.51 | 3.05
x2 = 0.2609, x1 = 0.1391 | 16.65
x2 = 0.2729, x1 = 0.0996 | 18.5
x2 = 0.2797, x1 = 0.6021 | 1.324
x2 = 0.2857, x1 = 0.2933 | 8.02
x2 = 0.2868, x1 = 0.0538 | 21
x2 = 0.2924, x1 = 0.6745 | 0.658
x2 = 0.2972, x1 = 0.5057 | 2.33
x2 = 0.3062, x1 = 0.3928 | 4.4
x2 = 0.3201, x1 = 0.5989 | 1.006
x2 = 0.3236, x1 = 0.1993 | 10.53
x2 = 0.3448, x1 = 0.147 | 12.41
x2 = 0.3553, x1 = 0.4946 | 1.727
x2 = 0.356, x1 = 0.294 | 5.97
x2 = 0.3662, x1 = 0.094 | 14.33
x2 = 0.3681, x1 = 0.3878 | 3.28
x2 = 0.3736, x1 = 0.5842 | 0.736
x2 = 0.3833, x1 = 0.0516 | 16.14
x2 = 0.3974, x1 = 0.502 | 1.235
x2 = 0.4042, x1 = 0.1983 | 7.96
x2 = 0.4237, x1 = 0.3973 | 2.32
x2 = 0.4281, x1 = 0.288 | 4.46
x2 = 0.4291, x1 = 0.149 | 9.07
x2 = 0.4547, x1 = 0.0982 | 10.36
x2 = 0.4684, x1 = 0.4786 | 0.869
x2 = 0.4784, x1 = 0.0511 | 11.87
x2 = 0.4799, x1 = 0.3986 | 1.585
x2 = 0.4832, x1 = 0.1963 | 5.71
x2 = 0.508, x1 = 0.155 | 6.45
x2 = 0.5162, x1 = 0.2658 | 3.24
x2 = 0.5407, x1 = 0.1007 | 7.42
x2 = 0.5473, x1 = 0.3908 | 1.023
x2 = 0.5621, x1 = 0.2957 | 2.03
x2 = 0.5657, x1 = 0.1954 | 3.92
x2 = 0.574, x1 = 0.0452 | 8.7
x2 = 0.598, x1 = 0.1495 | 4.39
x2 = 0.6293, x1 = 0.2115 | 2.49
x2 = 0.6333, x1 = 0.0992 | 5.1
x2 = 0.6413, x1 = 0.2861 | 1.252
x2 = 0.6634, x1 = 0.0564 | 5.74
x2 = 0.6743, x1 = 0.1551 | 2.84
x2 = 0.7038, x1 = 0.1181 | 3.11
x2 = 0.7282, x1 = 0.1894 | 1.533
x2 = 0.7476, x1 = 0.0632 | 3.67
x2 = 0.7565, x1 = 0.1579 | 1.636
x2 = 0.8052, x1 = 0.1037 | 1.848
x2 = 0.8459, x1 = 0.0584 | 2.09

CCOC(=O)OCC + CCCC[N+]1(C)CCCC1.O=S(=O)([N-]S(=O)(=O)C(F)(F)F)C(F)(F)F
Conditions | viscosity [mPa·s]
323.15 K, 100 kPa, x2 = 0 | 0.54
